Experimental data taken from publication PMC8426237, “A first-in-human phase I study of TAS0728, an oral covalent binding inhibitor of HER2, in patients with advanced solid tumors with HER2 or HER3 aberrations” (Investigational New Drugs, 2021).

Test: Phase I safety assessment: adverse events (CTCAE v5.0) in patients
[1] = Dose Level 3: 200 mg BID (N = 7)
[2] = Dose Level 3d: 150 mg BID (N = 6)
[3] = all treated population, overall

Method: A DLT was defined as a study treatment-related adverse event (TRAE), according to the Common Terminology Criteria for Adverse Events (CTCAE, Version 5.0), with qualifying criteria for certain DLTs (e.g., Grade ≥ 3 diarrhea, was included as a DLT only if lasting >48 h and unresponsive to intensive antidiarrheal medication).
Patients were closely monitored for these potential toxicities during the current study. Safety assessments included recording of AEs and serious AEs (SAEs) from the time of signing the study informed consent form to 30 days after the last dose of study medication. Safety parameters including laboratory evaluations (hematology, coagulation, chemistry, and urinalysis), vital sign measurements and body weight, electrocardiogram (ECG) recordings, ECOG performance status, echocardiogram or multi-gated acquisition (MUGA), and physical examination were assessed at screening, during the study and at 30 days following the last dose. The use of concomitant medications was permitted and details for such medications were recorded.

Compound: C=CC(=O)N1CCC[C@@H](n2nc(C(=O)Nc3ccc(CC(=O)N(C)C)c(C)c3C)c3c(N)ncnc32)C1 [TAS0728]
- Dermatitis acneiform, ≥Grade 3 [1]: 0 n (%)
- Diarrhea, Grade 1 [1]: 5 (71.4) n (%)
- Diarrhea, Grade 2 [1]: 5 (71.4) n (%)
- Diarrhea, Grade 3 [1]: 3 (42.9) n (%)
- Diarrhea, Grade 4 [1]: 0 n (%)
- Diarrhea, Grade 5 [1]: 0 n (%)
- Diarrhea, Total [1]: 6 (85.7) n (%)
- Diarrhea, ≥Grade 3 [1]: 3 (42.9) n (%)
- Dry skin, Grade 1 [1]: 2 (28.6) n (%)
- Dry skin, Grade 2 [1]: 0 n (%)
- Dry skin, Grade 3 [1]: 0 n (%)
- Dry skin, Grade 4 [1]: 0 n (%)
- Dry skin, Grade 5 [1]: 0 n (%)
- Dry skin, Total [1]: 2 (28.6) n (%)
- Dry skin, ≥Grade 3 [1]: 0 n (%)
- Fatigue, Grade 1 [1]: 1 (14.3) n (%)
- Fatigue, Grade 2 [1]: 3 (42.9) n (%)
- Fatigue, Grade 3 [1]: 0 n (%)
- Fatigue, Grade 4 [1]: 0 n (%)
- Fatigue, Grade 5 [1]: 0 n (%)
- Fatigue, Total [1]: 3 (42.9) n (%)
- Fatigue, ≥Grade 3 [1]: 0 n (%)
- Hypokalemia, Grade 1 [1]: 2 (28.6) n (%)
- Hypokalemia, Grade 2 [1]: 0 n (%)
- Hypokalemia, Grade 3 [1]: 0 n (%)
- Hypokalemia, Grade 4 [1]: 0 n (%)
- Hypokalemia, Grade 5 [1]: 0 n (%)
- Hypokalemia, Total [1]: 2 (28.6) n (%)
- Hypokalemia, ≥Grade 3 [1]: 0 n (%)
- Nausea, Grade 1 [1]: 1 (14.3) n (%)
- Nausea, Grade 2 [1]: 2 (28.6) n (%)
- Nausea, Grade 3 [1]: 0 n (%)
- Nausea, Grade 4 [1]: 0 n (%)
- Nausea, Grade 5 [1]: 0 n (%)
- Nausea, Total [1]: 2 (28.6) n (%)
- Nausea, ≥Grade 3 [1]: 0 n (%)
- Oedema peripheral, Grade 1 [1]: 2 (28.6) n (%)
- Oedema peripheral, Grade 2 [1]: 0 n (%)
- Oedema peripheral, Grade 3 [1]: 0 n (%)
- Oedema peripheral, Grade 4 [1]: 0 n (%)
- Oedema peripheral, Grade 5 [1]: 0 n (%)
- Oedema peripheral, Total [1]: 2 (28.6) n (%)
- Oedema peripheral, ≥Grade 3 [1]: 0 n (%)
- Pyrexia, Grade 1 [1]: 2 (28.6) n (%)
- Pyrexia, Grade 2 [1]: 1 (14.3) n (%)
- Pyrexia, Grade 3 [1]: 0 n (%)
- Pyrexia, Grade 4 [1]: 0 n (%)
- Pyrexia, Grade 5 [1]: 0 n (%)
- Pyrexia, Total [1]: 3 (42.9) n (%)
- Pyrexia, ≥Grade 3 [1]: 0 n (%)
- Vomiting, Grade 1 [1]: 1 (14.3) n (%)
- Vomiting, Grade 2 [1]: 1 (14.3) n (%)
- Vomiting, Grade 3 [1]: 0 n (%)
- Vomiting, Grade 4 [1]: 0 n (%)
- Vomiting, Grade 5 [1]: 0 n (%)
- Vomiting, Total [1]: 2 (28.6) n (%)
- Vomiting, ≥Grade 3 [1]: 0 n (%)
- Adverse events experienced in ≥10% patients, Grade 1 [2]: 5 (83.3) n (%)
- Adverse events experienced in ≥10% patients, Grade 2 [2]: 5 (83.3) n (%)
- Adverse events experienced in ≥10% patients, Grade 3 [2]: 3 (50.0) n (%)
- Adverse events experienced in ≥10% patients, Grade 4 [2]: 0 n (%)
- Adverse events experienced in ≥10% patients, Grade 5 [2]: 1 (16.7) n (%)
- Adverse events experienced in ≥10% patients, Total [2]: 6 (100) n (%)
- Adverse events experienced in ≥10% patients, ≥Grade 3 [2]: 3 (50.0) n (%)
- Back pain, Grade 1 [2]: 1 (16.7) n (%)
- Back pain, Grade 2 [2]: 1 (16.7) n (%)
- Back pain, Grade 3 [2]: 0 n (%)
- Back pain, Grade 4 [2]: 0 n (%)
- Back pain, Grade 5 [2]: 0 n (%)
- Back pain, Total [2]: 2 (33.3) n (%)
- Back pain, ≥Grade 3 [2]: 0 n (%)
- Diarrhea, Grade 1 [2]: 2 (33.3) n (%)
- Diarrhea, Grade 2 [2]: 1 (16.7) n (%)
- Diarrhea, Grade 3 [2]: 2 (33.3) n (%)
- Diarrhea, Grade 4 [2]: 0 n (%)
- Diarrhea, Grade 5 [2]: 0 n (%)
- Diarrhea, Total [2]: 4 (66.7) n (%)
- Diarrhea, ≥Grade 3 [2]: 2 (33.3) n (%)
- Pyrexia, Grade 1 [2]: 0 n (%)
- Pyrexia, Grade 2 [2]: 2 (33.3) n (%)
- Pyrexia, Grade 3 [2]: 0 n (%)
- Pyrexia, Grade 4 [2]: 0 n (%)
- Pyrexia, Grade 5 [2]: 0 n (%)
- Pyrexia, Total [2]: 2 (33.3) n (%)
- Pyrexia, ≥Grade 3 [2]: 0 n (%)
- Vomiting, Grade 1 [2]: 2 (33.3) n (%)
- Vomiting, Grade 2 [2]: 0 n (%)
- Vomiting, Grade 3 [2]: 0 n (%)
- Vomiting, Grade 4 [2]: 0 n (%)
- Vomiting, Grade 5 [2]: 0 n (%)
- Vomiting, Total [2]: 2 (33.3) n (%)
- Vomiting, ≥Grade 3 [2]: 0 n (%)
- Patients with AEs (Overall (N = 19)): 19 (100) n, (%)
- Patients with AEs that had an outcome of death (Overall (N = 19)): 1 (5.3) n, (%)
- Patients with AEs that led to study treatment discontinuation (Overall (N = 19)): 3 (15.8) n, (%)
- Patients with Grade ≥ 3 AEs (Overall (N = 19)): 9 (47.4) n, (%)
- Patients with SAEs (Overall (N = 19)): 8 (42.1) n, (%)
- Patients with treatment-related AEs (Overall (N = 19)): 17 (89.5) n, (%)
- Patients with treatment-related and Grade ≥ 3 AEs (Overall (N = 19)): 6 (31.6) n, (%)
- Patients who died during the study (all dose levels): 4
- Patients who experienced an AE during the study (all treated population, all 19 patients): 100.0%
- TRAE incidence: diarrhea [3]: 78.9%
- TRAE incidence: fatigue [3]: 21.1%
- TRAE incidence: nausea [3]: 21.1%
- TRAE incidence: vomiting [3]: 21.1%
- TRAEs considered ≥Grade 3 in severity [3]: 31.6%
- ≥Grade 3 TRAE incidence: diarrhea [3]: 26.3%
- Patients with an SAE considered related to study drug (all treated population, three of 19, diarrhea (200- and 150-mg BID), cardiac arrest (150 mg BID)): 15.8%
- Changes from baseline in clinical laboratory results and standard 12-lead ECG parameters (during the study): No clinically meaningful changes from baseline
- Patients who experienced an AE that led to study drug discontinuation (in total, all dose levels): 4
- Deaths >30 days after the last dose of study treatment, all due to clinical progression (of 4 deaths): 3
- Patients who experienced ≥1 SAE (overall population, 8 of 19): 42.1%
- Patients with an SAE Grade 3 or higher in severity (overall population, five patients): 26.3%
- SAE incidence: acute kidney injury (overall, 1 patient): 5.3%
- SAE incidence: back pain (overall, 1 patient): 5.3%
- SAE incidence: cardiac arrest (overall, 1 patient): 5.3%
- SAE incidence: cellulitis (overall, 1 patient): 5.3%
- SAE incidence: clostridium colitis (overall, 1 patient): 5.3%
- SAE incidence: dysphagia (overall, 1 patient): 5.3%
- ≥Grade 3 TRAE incidence: acute kidney injury (overall, 1 patient): 5.3%
- ≥Grade 3 TRAE incidence: cardiac arrest (overall, 1 patient): 5.3%
- ≥Grade 3 TRAE incidence: proteinuria (overall, 1 patient): 5.3%
- SAE incidence: diarrhea (overall, 2 patients): 10.5%
- SAE incidence: pyrexia (overall, 4 patients (2 each at 200 mg and 150 mg BID)): 21.1%
- Patients with diarrhea at a severity ≥Grade 3 (reduced dose of 150 mg BID): 2
- Patients with diarrhea (reduced dose of 150 mg BID, 4 of 6): 66.7%
